From patent US20250345318A1, “COMPOUND AND USE THEREOF IN PREVENTING OR TREATING RADIATION DAMAGE” (SIMCERE PHARMACEUTICAL CO., LTD., priority 2022, published 2025)

Experiments:
[1] = Pharmacokinetics of R-JAC4 and S-JAC4 in mice (Example 17); assay type: in vivo; conditions: for F / clearance (CL) / AUC(0-t) / Cmax / Tmax / half-life / C0 / Vd: female BALB/c mice; for F: intragastric 10 mg/kg vs intravenous 3 mg/kg; for clearance (CL) / AUC(0-t) / Cmax / Tmax / half-life / C0 / Vd: mean, n = 3; for AUC(0-t) / Cmax / Tmax / half-life / C0 / Vd: mouse, plasma; for Vd: read-out: Vss
[2] = tested on: C57/BL6 mice; experiment: R-JAC4 in radiation enteritis mouse model: plasma FD4, small intestine length (Example 18); assay type: in vivo; conditions: R-JAC4 10 mg/kg and 3 mg/kg intragastric, ABI 12 Gy
Description: The formulation of the vehicle for R-JAC4 was polyethylene glycol:ethanol:physiological saline=40:7.5:52.5, v/v/v. The vehicle group and the treatment groups were given the vehicle or treatment at the same volume by the same route.
The vehicle was administered to the vehicle control group intragastrically, and R-JAC4 10 mg/kg and R-JAC4 3 mg/kg interventions were given to the R-JAC4 treatment groups intragastrically. The treatment started 7 days before the X-ray radiation and was administrated once daily until the day before the end of study, for a total of […].
X-ray radiation: The mice were anesthetized intraperitoneally and exposed to ABI using an X-ray irradiator (12 Gy, 1.25 Gy/min). The irradiated region was a 3 cm region above the iliac joint below the chest, so as to induce gastrointestinal radiation syndrome.
Permeability detection in the small intestine: On day 4 post-radiation, FITC-dextran 4 kDa, abbreviated as FD4, was given to the mice intragastrically at a dose of 0.6 mg/g body weight. Peripheral blood was collected in an anticoagulation tube after 4 h, and the plasma was collected by centrifugation. The samples were added to a 96-well plate at 100 μL, and the fluorescence intensity was measured (excitation wavelength: 485 nm, emission wavelength: 535 nm). The FD4 concentrations of the samples were calculated by regression according to a standard curve. […]

[3] = tested on: JWA^IEC WT mice; experiment: R-JAC4 in radiation enteritis model, JWA^IEC WT mice (Example 19); assay type: in vivo; conditions: R-JAC4 10 mg/kg
Description: (§1) Intestinal epithelial cell JWA-knockout mice (JWA^IEC KO) and their wild type littermates (JWA^IEC WT) were subjected to radiation enteritis modeling in the same manner as in Example 17 and were given R-JAC4 10 mg/kg treatment. In addition to the detection of FD4 concentration, the plasma was collected from the mice at the end of study to detect the plasma proinflammatory cytokine level by ELISA and the activity of antioxidant-related enzymes by biochemical tests.

[4] = tested on: Caco-2 cells; experiment: Integrity of irradiated single Caco-2 cell layer: electric resistance, FD4 permeability (Example 23); assay type: cell-based; conditions: 20 Gy, 24 h later
Description: Caco-2 cells were cultured in a mixture of 78% MEM+20% FBS+1% P/S+1% NEAA and seeded in a 24-well chamber at a density of 10,000 cells/well, with the culture medium refreshed once every 2 days until day 11. The cells were then pretreated with DMSO or 1, 3, or 10 μM R-JAC4 for 3 days. The single cell layer model was constructed during the 14 days. The model was then irradiated at a dose of 0 Gy or 20 Gy at a dose rate of 2.5 Gy/min, and the electric resistance of the single cell layer and the permeability of FD4 were measured 24 h later.

[5] = tested on: JWA^IEC KO mice; experiment: R-JAC4 in radiation enteritis model, JWA^IEC KO mice (Example 19); assay type: in vivo
Description: as §1

[6] = single intravenous dose 3 mg/kg
[7] = po, single intragastric dose 10 mg/kg
[8] = 1 μM R-JAC4 3 days pretreatment
[9] = 3 μM R-JAC4 3 days pretreatment
[10] = R-JAC4, JWA^IEC KO mice vs vehicle control

| F [1] | clearance (CL) [1, 6] | AUC(0-t) [1, 7] | Cmax [1, 7] | Tmax [1, 7] | half-life [1, 7] | AUC(0-t) [1, 6] | C0 [1, 6] | half-life [1, 6] | Vd [1, 6] | Structure (SMILES) | further results |
| --- | --- | --- | --- | --- | --- | --- | --- | --- | --- | --- | --- |
| 1.32% | 121 mL/min/kg | 17.2 ng·h/mL | 48.7 ng/mL | 4.98 min | 27.1 min | 410 ng·h/mL | 1650 ng/mL | 116 min | 7.72 L/kg | c1ccc(CSc2nnc([C@@H]3COc4ccccc4O3)o2)nc1 [S-JAC4] | – |
| 3.94% | 140 mL/min/kg | 49.5 ng·h/mL | 176 ng/mL | 4.98 min | 22.7 min | 374 ng·h/mL | 1680 ng/mL | 36 min | 3.64 L/kg | c1ccc(CSc2nnc([C@H]3COc4ccccc4O3)o2)nc1 [R-JAC4] | shortening extent of the small intestine [2]: effective in reducing the shortening extent of the small intestine in a dose-dependent manner; concentration of fluorescein FD4 in the plasma ([2]; day 4 post-radiation): dose-dependent down-regulation effect; activity of plasma glutathione peroxidase and catalase [3]: significantly increased; plasma FD4 level [3]: significantly downregulated; plasma levels of proinflammatory cytokines TNF-α and IL-1β [3]: significantly reduced; electric resistance of the single Caco-2 cell layer [4, 8]: 1016±64.65 Ω·cm^2; permeability of FD4 through the single cell layer [4, 8]: 410.60 ± 50.99 ng/mL; electric resistance of the single Caco-2 cell layer [4, 9]: 1138±25.97 Ω·cm^2; permeability of FD4 through the single cell layer [4, 9]: 345.40 ± 29.85 ng/mL; electric resistance of the single Caco-2 cell layer ([4]; 10 μM R-JAC4 3 days pretreatment): 1109±101.20 Ω·cm^2; plasma FD4 level ([5]; R-JAC4 10 mg/kg, JWA^IEC KO mice vs vehicle control): no significant change; activity of plasma glutathione peroxidase and catalase [5, 10]: no significant changes; plasma levels of proinflammatory cytokines TNF-α and IL-1β [5, 10]: no significant changes; oral bioavailability, comparison of isomers ([1]; BALB/c mice, calculated by F=(AUC-po/Dose-po)/(AUC-iv/Dose-iv)): higher than that of S-JAC4 |
